Counter-ions that a name gives are not always drawn.
What was measured:
rat livers = assay: denitration rate in re-perfused rat livers (nitrate-like action); settings: rat liver re-perfused 4 min, equimolar 5×10^-5 M/l; freed NO2 determined in the perfusate; high values = fast denitration
β-receptor = assay: β-blocking effectiveness: inhibition of isoprenaline-induced increase of the frequency in rabbits; format: in vivo, rabbit; settings: i.v., isoprenaline 1 mcg/kg i.v.

SMILES	Vrel (denitration rate in relation to isosorbide-5-mononitrate) (rat livers)	ID 50 fcor (dose causing 50% inhibition of the increase of the frequency through isoprenaline) (β-receptor)
CN(CC(C)(C)CO[N+](=O)[O-])C(=O)Cc1ccc(OCC(O)CNC(C)(C)C)cc1 (centres unmarked) [9 (c), 1-[4-[[N--(2,2-dimethyl-3-nitroxypropyl)-N--methyl]-amino]-carbonylmethyl]-phenoxy-3-tert.-butylaminopropan-2-ol fumarate]	1.63	–
CC(C)(C)NCC(O)COc1ccc(NC(=O)CCCO[N+](=O)[O-])cc1 (centres unmarked) [Example 1, 1-[4-(3-Nitroxypropyl)-carbonylamino]-phenoxy-3-tert.-butylaminopropan-2-olhydrochloride]	0.77	2 326 mcg/kg
CC(C)(C)NCC(O)COc1ccc(NC(=O)[C@H]2CC[C@H](O[N+](=O)[O-])CC2)cc1C#N (relative stereo) [4 (c), 1-[2-cyano-4-[[(t-4-nitroxy)-cyclohexyl]-r-1-carbonylamino]]-phenoxy-3-tert.-butylaminopropan-2-ol benzoate]	1.95	–
C#CC(C)(C)NCC(O)COc1ccc(CC(=O)N2CCC(CO[N+](=O)[O-])CC2)cc1 (centres unmarked) [9 (j), 3-(2-methyl-3-butyn-2-yl)-amino-1-[4-(4-nitroxymethyl-1-piperidino)-carbonylmethyl]-phenoxypropan-2-ol fumarate]	1.94	–
CC(C)(C)NCC(O)COc1ccc(NC(=O)CCCO[N+](=O)[O-])cc1C#N (centres unmarked) [4 (a), 1-[2-cyano-4-(3-nitroxypropyl)-carbonylamino]-phenoxy-3-tert.-butylaminopropan-2-ol hydrochloride]	0.74	180 µg/kg
CC(C)(C)NCC(O)COc1ccc(NC(=O)CCCCO[N+](=O)[O-])cc1 (centres unmarked) [2 (a), 1-[4-(4-nitroxybutyl)-carbonylamino]-phenoxy-3-tert.-butylaminopropan-2-ol fumarate]	0.65	–
CC(CNC(=O)Cc1ccc(OCC(O)CNC(C)(C)C)cc1)O[N+](=O)[O-] (centres unmarked) [9 (a), 1-[4-[(2-nitroxypropyl)-amino]-carbonylmethyl]-phenoxy-3-tert.-butylaminopropan-2-ol hemifumarate]	0.34	3 147 mcg/kg
CC(=O)c1cc(NC(=O)CCCO[N+](=O)[O-])ccc1OCC(O)CNC(C)(C)C (centres unmarked) [6 (a), 1-[2-methylcarbonyl-4-(3-nitroxypropyl)-carbonylamino]-phenoxy-3-tert.-butylaminopropan-2-ol fumarate]	0.51	886 µg/kg
CC(C)(C)NCC(O)COc1ccc(NC(=O)C[C@@H]2CCCC[C@H]2O[N+](=O)[O-])cc1 (relative stereo) [2 (g), 1-[4-[[(t-2-nitroxy)-cyclohexyl]-r-1-methylcarbonylamino] ]-phenoxy-3-tert.-butylaminopropan-2-ol hydrochloride]	0.97	4 158 mcg/kg
CC(C)(C)NCC(O)COc1ccc(NC(=O)C(C)(C)CO[N+](=O)[O-])cc1 (centres unmarked) [2 (b), 1-[4-(2-methyl-1-nitroxy-2-propyl)-carbonylamino]-phenoxy-3-tert.-butylaminopropan-2-ol hydrochloride]	0.68	4 164 mcg/kg
CC(C)(C)NCC(O)COc1ccc(CC(=O)N[C@@H]2CCCC[C@H]2O[N+](=O)[O-])cc1 (relative stereo) [9 (d), trans-1-[4-[(2-nitroxycyclohexyl)-amino]-carbonylmethyl]-phenoxy-3-tert.-butylaminopropan-2-ol]	1.06	–
CC(=O)c1cc(NC(=O)[C@H]2CC[C@H](O[N+](=O)[O-])CC2)ccc1OCC(O)CNC(C)(C)C (relative stereo) [6 (c), 1-[2-methylcarbonyl-4-[[(t-4-nitroxy)-cyclohexyl]-r-1-carbonylamino]]-phenoxy-3-tert.-butylaminopropan-2-ol hydrochloride]	1.34	2 273 mcg/kg
O=[N+]([O-])O[C@@H]1CO[C@H]2[C@@H]1OC[C@@H]2O [Isosorbide-5-mononitrate, isosorbide-5-mononitrate, reference compound]	0.86	–
CC(C)(C)NCC(O)COc1ccc(CC(=O)N2CCC(CO[N+](=O)[O-])CC2)cc1 (centres unmarked) [9 (h), 1-[4-(4-nitroxymethyl-1-piperidino)-carbonylmethyl]-phenoxy-3-tert.-butylaminopropan-2-ol fumarate]	1.06	1 207 mcg/kg
CCOC(=O)c1cc(NC(=O)CCCO[N+](=O)[O-])ccc1OCC(O)CNC(C)(C)C (centres unmarked) [Example 7, 1-[2-Ethoxycarbonyl-4-(3-nitroxypropyl)-carbonylamino]phenoxy-3-tert.-butylaminopropan-2-ol cyclamate]	1.72	1 619 mcg/kg
CC(C)(C)NCC(O)COc1ccc(CC(=O)N2CCC(O[N+](=O)[O-])CC2)cc1 (centres unmarked) [9 (f), 1-[4-(4-nitroxy-1-piperidino)-carbonylmethyl]-phenoxy-3-tert.-butylaminopropan-2-ol fumarate]	1.23	–
CC(C)(C)NCC(O)COc1ccc(CC(=O)NCCCO[N+](=O)[O-])cc1 (centres unmarked) [Example 8, 1-[4-[(3-Nitroxypropyl)-amino]-carbonylmethyl]-phenoxy-3-tert.-butylaminopropan-2-ol fumarate]	0.48	–
CC(C)(C)NCC(O)COc1ccc(CC(=O)N2CCCC(CO[N+](=O)[O-])C2)cc1 (centres unmarked) [9 (g), 1-[4-(3-nitroxymethyl-1-piperidino)-carbonylmethyl]-phenoxy-3-tert.-butylaminopropan-2-ol fumarate]	1.69	–
CC(C)(C)NCC(O)COc1ccc(NC(=O)[C@H]2CC[C@H](O[N+](=O)[O-])CC2)cc1 (relative stereo) [2 (e), 1-[4-[[(t-4-nitroxy)-cyclohexyl]-r-1-carbonylamino]]-phenoxy-3-tert.-butylaminopropan-2-ol hydrochloride]	0.95	4 006 mcg/kg
